# Experimental data as given in the NIST ThermoML archive (doi:10.1021/je2011055).
# ± gives the expanded uncertainty stated by the source.
# Settings: Liquid, Closed cell (Static) method
Structure (SMILES),vapor or sublimation pressure (258.15 K) [kPa],vapor or sublimation pressure (268.15 K) [kPa],vapor or sublimation pressure (278.15 K) [kPa],vapor or sublimation pressure (288.15 K) [kPa]
CC(C)C [2-methylpropane],88.9 ± 1,130.8 ± 1.1,186.7 ± 1.1,258.7 ± 1.3
"F/C=C/C(F)(F)F [trans-1,3,3,3-tetrafluoropropene]",119.3 ± 1.1,178.4 ± 1.1,258.1 ± 1.3,362.8 ± 1.5
